Reference: patent publication US7388017B2, “Inhibitors of serine proteases, particularly hepatitis C virus NS3 protease” (Vertex Pharmaceuticals Incorporated, priority 1996, dated 2008)
Starred links: 1 amine or outer side, 2 acyl side, 3 side chain; linkers in the order of their positions; H or OH if unused. Non-standard residues stand in square brackets, D forms with d. Residues, ends and D or L forms follow the SMILES beside them. Groups on a side chain read outwards from the residue. *: point of attachment. CH2(1-naphthyl) = c1ccc2c(C*)cccc2c1; Benzyl(3,4-Cl2) = Clc1ccc(C*)cc1Cl; Pyrazinecarbonyl = O=C(c1cnccn1)*; NH(3-Cl-phenyl) = Clc1cccc(N*)c1; X26 = Clc1ccc(-c2ncc(C*)s2)cc1; X35 = Cc1noc(C)c1-c1nc(C*)no1; X36 = c1ccc(-c2ccc(C*)cc2)cc1; Hyp = O=C(O)[CH]1C[CH](O)CN1; X25 = c1ccc(-c2nc(C*)no2)cc1; X5 = c1ccc(Oc2cccc(C*)c2)cc1; X11 = c1ccc(-c2ccccc2C*)cc1; X2 = COc1ccccc1-c1nc(C*)no1; X21 = FC(F)(F)Oc1cccc(C*)c1; X27 = Fc1cc2c(c(C*)c1)OCOC2; X7 = O=C(c1ccc(Cl)c(Cl)c1)*; X20 = FC(F)(F)c1cccc(C*)c1; X24 = FC(F)(F)c1ccc(C*)cc1; X4 = FC(F)(F)Oc1ccc(C*)cc1; Isovaleryl = CC(C)CC(=O)*; X15 = Clc1cc2c(cc1C*)OCO2; X31 = Clc1ccc2scc(C*)c2c1; X40 = CC(C)(C)c1nc(C*)no1; X10 = c1ccc2cc(C*)ccc2c1; X32 = Clc1ccc(N*)c(Cl)c1; X6 = Nc1c(Cl)cc(N*)cc1Cl; X42 = Clc1cccc(N*)c1Cl; Abu = CC[CH](N)C(=O)O; X22 = N#Cc1cccc(C*)c1; X33 = N#Cc1ccc(C*)cc1; CO = O=C([*:1])[*:2]; X29 = Fc1ccc(C*)cc1F; Bz = O=C(c1ccccc1)*; X1 = Cc1noc(C)c1C*

What follows are compounds tested against T1, HCV NS3 protease (Hepatitis C virus genotype 1a, UniProt P27958) (assay: Enzyme inhibition of HCV NS3 serine protease (cleavage of peptide substrate / EDVV AbuC-p-nitroanilide, with or without NS4A)). Details: Enzyme inhibition data; Ki from rate vs [inhibitor] plots, Morrison tight binding competitive inhibition fit; 30 C, pH 7.8; read-out: Ki.
T1 construct: more particularly HCV NS3 proteases
T1 sequence (P27958 1027-1208): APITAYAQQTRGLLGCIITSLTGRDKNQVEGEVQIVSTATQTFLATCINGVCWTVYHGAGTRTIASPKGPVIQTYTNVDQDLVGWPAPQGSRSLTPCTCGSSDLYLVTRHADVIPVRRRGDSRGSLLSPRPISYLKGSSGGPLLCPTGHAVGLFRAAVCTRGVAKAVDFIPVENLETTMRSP
Format: biochemical
Experimental: Cleavage reactions were quenched by the addition of an equal volume of a mixture of 10% TFA:acetonitrile (1:1) and activity was assessed on a reversed phase HPLC column (Rainin C18 Microsorb-MV, […], 4.6×250 mm; 0-50% acetonitrile, 0.1% TFA@ 3.33% min) using a Hewlett Packard 1050 instrument with auto-injection and diode array detection at 210 nm and 280 nm (where appropriate). Peptide elution fragments were collected and identified by mass spectrometry and N-terminal sequence analysis. Fragment identity and concentration was further verified by authentic, synthesized products. Initial rates of cleavage were determined at <20% substrate conversion and catalytic parameters were determined assuming Michaelis-Menten kinetics using the MultiFit program (Day Computing, Cambridge, Mass.).
Spectrophotometric assays were run in a 96-well microtiter plate at 30 C, using a SpectraMax 250 reader (Molecular Devices, Sunnyvale, Calif.) with kinetic capability. Cleavage of EDVV AbuC-p-nitroanilide (5A-pNA) substrate was performed with or without […] in the same buffer used for HPLC assays at 30 C, and pNA release was monitored at 405 nm. The extinction-coefficient of p-nitroaniline is independent of pH at values of 5.5. and above [Tuppy, H., et al., Hoppe-Seyler's Z. Physiol. Chem., 329, pp. 278-288 (1962)]; Raybuck and Luong, unpublished observations).
Kinetic constants for the rapid equilibrium ordered bisubstrate reaction were determined from rate vs [4A], [EDVV AbuC-pNA] data by non-linear least squares fitting to equation 1 [Morrison, J. F. Biochim. Biophys. Acta, 185, pp. 269-286 (1969)] as described in the text. Kii and Kis values for peptidyl inhibitors were determined from rate vs [inhibitor], [substrate] data and fitting to the equation for mixed inhibition: rate=Vmax[S]/{Km(1+[I]/Kis)+[S](1+[I]/Kii)} The commercial program KinetAsyst (StateCollege, Pa.) was used for both procedures. Ki values were calculated from rate vs [inhibitor] plots by a nonlinear least squares fit of the data to the equation of Morrison for tight binding competitive inhibition [Morrison, J. F. Biochim. Biophys. Acta, 185, pp. 269-286 (1969)]. The KineTic program (BioKin Ltd) was used for this procedure.
Ki values are expressed in μM. Category “A” indicates <1 μM inhibition; category “B” indicates 1-100 μM inhibition; category “C” indicates >100 μM.
Work on `CCC(C=O)NC(=O)C1CC(OCc2cccc(Oc3ccccc3)c2)CN1C(=O)C(NC(=O)C(NC(=O)c1cnccn1)C(C)C)C(C)C` (centres unmarked) [Compound 1] (Pyrazinecarbonyl-VV[Hyp](X5)[Abu]-aldehyde; configuration not given here) yielded a Ki of 1 to 100 µM. `CCC(C=O)NC(=O)C1CC(OCc2ccc(-c3ccccc3)cc2)CN1C(=O)C(NC(=O)C(NC(=O)c1cnccn1)C(C)C)C(C)C` (centres unmarked) [Compound 2] (Pyrazinecarbonyl-VV[Hyp](X36)[Abu]-aldehyde; configuration not given here) gave a Ki of 1 to 100 µM. With `CCC(C=O)NC(=O)C1CC(OCc2noc(-c3ccccc3)n2)CN1C(=O)C(NC(=O)C(NC(=O)c1cnccn1)C(C)C)C(C)C` (centres unmarked) [Compound 3] (Pyrazinecarbonyl-VV[Hyp](X25)[Abu]-aldehyde; configuration not given here) the Ki was 1 to 100 µM. With `CCC(C=O)NC(=O)C1CC(OCc2noc(-c3c(C)noc3C)n2)CN1C(=O)C(NC(=O)C(NC(=O)c1cnccn1)C(C)C)C(C)C` (centres unmarked) [Compound 5] (Pyrazinecarbonyl-VV[Hyp](X35)[Abu]-aldehyde; configuration not given here) the Ki was 1 to 100 µM. `CCC(C=O)NC(=O)C1CC(OCc2noc(C(C)(C)C)n2)CN1C(=O)C(NC(=O)C(NC(=O)c1cnccn1)C(C)C)C(C)C` (centres unmarked) [Compound 6] (Pyrazinecarbonyl-VV[Hyp](X40)[Abu]-aldehyde; configuration not given here) was tested, and the Ki was 1 to 100 µM. `CCC(C=O)NC(=O)C1CC(OCc2cc(F)cc3c2OCOC3)CN1C(=O)C(NC(=O)C(NC(=O)c1cnccn1)C(C)C)C(C)C` (centres unmarked) [Compound 8] (Pyrazinecarbonyl-VV[Hyp](X27)[Abu]-aldehyde; configuration not given here) showed a Ki of 1 to 100 µM. Work on `CCC(C=O)NC(=O)C1CC(OCc2cccc(OC(F)(F)F)c2)CN1C(=O)C(NC(=O)C(NC(=O)c1cnccn1)C(C)C)C(C)C` (centres unmarked) [Compound 9] (Pyrazinecarbonyl-VV[Hyp](X21)[Abu]-aldehyde; configuration not given here) yielded a Ki of 1 to 100 µM. Work on `CCC(C=O)NC(=O)C1CC(OCc2ccc(Cl)c(Cl)c2)CN1C(=O)C(NC(=O)C(NC(=O)c1cnccn1)C(C)C)C(C)C` (centres unmarked) [Compound 10] (Pyrazinecarbonyl-VV[Hyp](Benzyl(3,4-Cl2))[Abu]-aldehyde; configuration not given here) yielded a Ki of 1 to 100 µM. `CCC(C=O)NC(=O)C1CC(OCc2ccccc2-c2ccccc2)CN1C(=O)C(NC(=O)C(NC(=O)c1cnccn1)C(C)C)C(C)C` (centres unmarked) [Compound 11] (Pyrazinecarbonyl-VV[Hyp](X11)[Abu]-aldehyde; configuration not given here) showed a Ki of 1 to 100 µM. With `CCC(C=O)NC(=O)C1CC(OCc2c(C)noc2C)CN1C(=O)C(NC(=O)C(NC(=O)c1cnccn1)C(C)C)C(C)C` (centres unmarked) [Compound 12] (Pyrazinecarbonyl-VV[Hyp](X1)[Abu]-aldehyde; configuration not given here) the Ki was 1 to 100 µM. Work on `CCC(C=O)NC(=O)C1CC(OCc2cc3c(cc2Cl)OCO3)CN1C(=O)C(NC(=O)C(NC(=O)c1cnccn1)C(C)C)C(C)C` (centres unmarked) [Compound 13] (Pyrazinecarbonyl-VV[Hyp](X15)[Abu]-aldehyde; configuration not given here) yielded a Ki of 1 to 100 µM. `CCC(C=O)NC(=O)C1CC(OCc2noc(-c3ccccc3OC)n2)CN1C(=O)C(NC(=O)C(NC(=O)c1cnccn1)C(C)C)C(C)C` (centres unmarked) [Compound 14] (Pyrazinecarbonyl-VV[Hyp](X2)[Abu]-aldehyde; configuration not given here) gave a Ki of 1 to 100 µM. `CCC(C=O)NC(=O)C1CC(OCc2ccc(C#N)cc2)CN1C(=O)C(NC(=O)C(NC(=O)c1cnccn1)C(C)C)C(C)C` (centres unmarked) [Compound 15] (Pyrazinecarbonyl-VV[Hyp](X33)[Abu]-aldehyde; configuration not given here) was tested, and the Ki was 1 to 100 µM. For `CCC(C=O)NC(=O)C1CC(OCc2cccc(C(F)(F)F)c2)CN1C(=O)C(NC(=O)C(NC(=O)c1cnccn1)C(C)C)C(C)C` (centres unmarked) [Compound 16] (Pyrazinecarbonyl-VV[Hyp](X20)[Abu]-aldehyde; configuration not given here), the Ki was 1 to 100 µM. Compound `CCC(C=O)NC(=O)C1CC(OCc2ccc(C(F)(F)F)cc2)CN1C(=O)C(NC(=O)C(NC(=O)c1cnccn1)C(C)C)C(C)C` (centres unmarked) [Compound 17] (Pyrazinecarbonyl-VV[Hyp](X24)[Abu]-aldehyde; configuration not given here) has a Ki of 1 to 100 µM. In the case of `CCC(C=O)NC(=O)C1CC(OCc2ccc(OC(F)(F)F)cc2)CN1C(=O)C(NC(=O)C(NC(=O)c1cnccn1)C(C)C)C(C)C` (centres unmarked) [Compound 18] (Pyrazinecarbonyl-VV[Hyp](X4)[Abu]-aldehyde; configuration not given here), the Ki is reported as 1 to 100 µM. `CCC(C=O)NC(=O)C1CC(OCc2ccc3ccccc3c2)CN1C(=O)C(NC(=O)C(NC(=O)c1cnccn1)C(C)C)C(C)C` (centres unmarked) [Compound 20] (Pyrazinecarbonyl-VV[Hyp](X10)[Abu]-aldehyde; configuration not given here) was tested, and the Ki was 1 to 100 µM. In the case of `CCC(C=O)NC(=O)C1CC(OCc2cccc(C#N)c2)CN1C(=O)C(NC(=O)C(NC(=O)c1cnccn1)C(C)C)C(C)C` (centres unmarked) [Compound 21] (Pyrazinecarbonyl-VV[Hyp](X22)[Abu]-aldehyde; configuration not given here), the Ki is reported as 1 to 100 µM. `CCC(C=O)NC(=O)C1CC(OCc2ccc(F)c(F)c2)CN1C(=O)C(NC(=O)C(NC(=O)c1cnccn1)C(C)C)C(C)C` (centres unmarked) [Compound 22] (Pyrazinecarbonyl-VV[Hyp](X29)[Abu]-aldehyde; configuration not given here) gave a Ki of 1 to 100 µM. Compound `CCC(C=O)NC(=O)C1CC(OCc2csc3ccc(Cl)cc23)CN1C(=O)C(NC(=O)C(NC(=O)c1cnccn1)C(C)C)C(C)C` (centres unmarked) [Compound 23] (Pyrazinecarbonyl-VV[Hyp](X31)[Abu]-aldehyde; configuration not given here) has a Ki of 1 to 100 µM. `CCC(C=O)NC(=O)C1CC(OCc2cnc(-c3ccc(Cl)cc3)s2)CN1C(=O)C(NC(=O)C(NC(=O)c1cnccn1)C(C)C)C(C)C` (centres unmarked) [Compound 24] (Pyrazinecarbonyl-VV[Hyp](X26)[Abu]-aldehyde; configuration not given here) was tested, and the Ki was 1 to 100 µM. `CCC(C=O)NC(=O)C1CC(OCc2cccc3ccccc23)CN1C(=O)C(NC(=O)C(NC(=O)c1cnccn1)C(C)C)C(C)C` (centres unmarked) [Compound 26] (Pyrazinecarbonyl-VV[Hyp](CH2(1-naphthyl))[Abu]-aldehyde; configuration not given here) gave a Ki of 1 to 100 µM. Compound `CCC(C=O)NC(=O)C1CC(OC(=O)c2ccc(Cl)c(Cl)c2)CN1C(=O)C(NC(=O)C(NC(=O)c1cnccn1)C(C)C)C(C)C` (centres unmarked) [Compound 27] (Pyrazinecarbonyl-VV[Hyp](X7)[Abu]-aldehyde; configuration not given here) has a Ki of 1 to 100 µM. Work on `CCC(C=O)NC(=O)C1CC(OC(=O)c2ccccc2)CN1C(=O)C(NC(=O)C(NC(=O)c1cnccn1)C(C)C)C(C)C` (centres unmarked) [Compound 28] (Pyrazinecarbonyl-VV[Hyp](Bz)[Abu]-aldehyde; configuration not given here) yielded a Ki of 1 to 100 µM. `CCC(C=O)NC(=O)C1CC(OC(=O)CC(C)C)CN1C(=O)C(NC(=O)C(NC(=O)c1cnccn1)C(C)C)C(C)C` (centres unmarked) [Compound 29] (Pyrazinecarbonyl-VV[Hyp](Isovaleryl)[Abu]-aldehyde; configuration not given here) showed a Ki of 1 to 100 µM. Compound `CCC(C=O)NC(=O)C1CC(OC(=O)Nc2ccc(Cl)cc2Cl)CN1C(=O)C(NC(=O)C(NC(=O)c1cnccn1)C(C)C)C(C)C` (centres unmarked) [Compound 30] (Pyrazinecarbonyl-VV[Hyp]([CO-X32])[Abu]-aldehyde; configuration not given here) has a Ki of 1 to 100 µM. For `CCC(C=O)NC(=O)C1CC(OC(=O)Nc2cccc(Cl)c2Cl)CN1C(=O)C(NC(=O)C(NC(=O)c1cnccn1)C(C)C)C(C)C` (centres unmarked) [Compound 31] (Pyrazinecarbonyl-VV[Hyp]([CO-X42])[Abu]-aldehyde; configuration not given here), the Ki was 1 to 100 µM. `CCC(C=O)NC(=O)C1CC(OC(=O)Nc2cccc(Cl)c2)CN1C(=O)C(NC(=O)C(NC(=O)c1cnccn1)C(C)C)C(C)C` (centres unmarked) [Compound 32] (Pyrazinecarbonyl-VV[Hyp]([CO-NH(3-Cl-phenyl)])[Abu]-aldehyde; configuration not given here) gave a Ki of 1 to 100 µM. In the case of `CCC(C=O)NC(=O)C1CC(OC(=O)Nc2cc(Cl)c(N)c(Cl)c2)CN1C(=O)C(NC(=O)C(NC(=O)c1cnccn1)C(C)C)C(C)C` (centres unmarked) [Compound 33] (Pyrazinecarbonyl-VV[Hyp]([CO-X6])[Abu]-aldehyde; configuration not given here), the Ki is reported as greater than 100 µM.
